These results are taken from patent US20240254087A1, “SELECTIVE, PARTIAL, AND ARRESTIN-BIASED 5-HT2A AGONISTS WITH UTILITY IN VARIOUS DISORDERS” (Saint Joseph's University, priority 2021, published 2024).

The structures appear in SMILES notation.

T1 sequence (P28223 whole entry): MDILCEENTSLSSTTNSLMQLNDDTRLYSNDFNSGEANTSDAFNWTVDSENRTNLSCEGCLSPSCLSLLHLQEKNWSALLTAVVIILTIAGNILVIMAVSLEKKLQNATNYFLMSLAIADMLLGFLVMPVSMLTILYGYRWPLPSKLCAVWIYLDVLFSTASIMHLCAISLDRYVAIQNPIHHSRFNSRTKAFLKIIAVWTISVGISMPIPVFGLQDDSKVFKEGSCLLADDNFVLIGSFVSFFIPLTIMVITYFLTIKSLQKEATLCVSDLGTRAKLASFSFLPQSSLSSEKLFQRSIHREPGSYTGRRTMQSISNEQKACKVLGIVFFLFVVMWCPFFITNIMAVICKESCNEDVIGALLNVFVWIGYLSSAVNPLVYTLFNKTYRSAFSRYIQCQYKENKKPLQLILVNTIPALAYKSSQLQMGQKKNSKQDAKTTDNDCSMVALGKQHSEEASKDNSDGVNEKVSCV

The first assay addresses T1, 5-HT2A (Homo sapiens, UniProt P28223). Kind of assay: cell-based. To be noted: BRET, mean ± SEM; read-out: 5-HT2A Gq dissociation pEC50 (converted). Also on record: expressed in transfected cells; host or cells: HEK293T, transient. How it is done: (§1) After at least 18-24 hours, transfected cells were plated in poly-lysine coated 96-well white clear bottom cell culture plates in DMEM containing 1% dialyzed FBS at a density of 25-40,000 cells in 200 μL per well and incubated overnight. After approximately 20-24 hours, media was decanted and cells were washed with 60 μL of drug buffer (1×HBSS, 20 mM HEPES, pH 7.4), followed by 60 μL of drug buffer and pre-incubated in a humidified atmosphere at 37° C. before receiving drug stimulation. Drug stimulation was induced by adding 30 μL of a solution of drug (3X) diluted in McCorvy buffer (1×HBSS, 20 mM HEPES, pH 7.4, supplemented with 0.3% BSA fatty acid free, 0.03% ascorbic acid) and plates were incubated at the indicated time and temperature. Fifteen minutes before reading, 10 μL of the RLuc substrate, either coelenterazine h for β-Arrestin recruitment BRET^1 or coelenterazine 400a for Gq dissociation BRET^2 (Prolume/Nanolight, 5 μM final concentration) was addedper well. […] The BRET ratios of fluorescence/luminescence were calculated per well and were plotted as a function of drug concentration using Graphpad Prism 8 (Graphpad Software Inc., San Diego, CA).
On the technique in general: Bioluminescence resonance energy transfer reports proximity on the nanometre scale.
Consider `COc1cc(Br)cc(OC)c1CCNCc1cccc(C)c1O` [(42)], for which the EC50 was 1.1 nM.

For the molecule `COc1cc(CCNC2CCc3ccccc32)c(OC)cc1C` (stereo not drawn) [(83)], the EC50 was 6.31 nM.

Regarding `COc1cc(CCNC2CCc3cccc(O)c32)c(OC)cc1C` (stereo not drawn) [(84)], the EC50 is 2.69 nM.

Turning to `COc1cc(CCNC2Cc3ccccc3C2)c(OC)cc1C` [(85)], the EC50 was 17.8 nM.

Still in this assay, the particulars now being: read-out: 5-HT2A Gq Emax (% 5-HT), BRET, mean ± SEM.
For orientation: Emax means the greatest response seen or fitted, relative to the assay's reference. Consider `COc1cc(CCNCc2cccc3ccccc23)c(OC)cc1C` [25D-N1-Nap (27)], for which the Emax stood at 34.3 ± 2.9%.

As to `COc1cc(CCNCc2ccccc2-c2ccccc2)c(OC)cc1C` [25D-NBPh (28)], the Emax amounted to 23.2 ± 4.8%.

As for `COc1cc(Cl)ccc1CCNCc1cccc2ccccc12` [(34)], the Emax is 25.2 ± 2%.

Regarding `COc1cc(Br)ccc1CCNCc1cccc2ccccc12` [(36)], the Emax was 26.3 ± 1.2%.

Turning to `CCOc1ccc(CCNCc2cccc3ccccc23)cc1OC` [(37)], the Emax is 29.3 ± 1.9%.

As for `COc1cc(CCNCc2cccc3ccccc23)ccc1Cl` [(40)], the Emax stood at 29.9 ± 1.8%.

Consider `COc1cc(Br)cc(OC)c1CCNCc1cccc(C)c1O` [(42)], for which the Emax worked out at 69.2 ± 1.5%.

On to `COc1cc(CCNC2CCc3ccccc32)c(OC)cc1C` (stereo not drawn) [(83)], for which the Emax worked out at 50.7 ± 7%.

As to `COc1cc(CCNC2CCc3cccc(O)c32)c(OC)cc1C` (stereo not drawn) [(84)], the Emax amounted to 71.9 ± 4.9%.

For `COc1cc(CCNC2Cc3ccccc3C2)c(OC)cc1C` [(85)], the Emax is 53.5 ± 4.3%.

In another assay the target is 5-HT2B (Homo sapiens, UniProt P41595). Kind of assay: BRET Gq dissociation, 5-HT2B. Format: cell-based. Also on record: expressed in transfected cells; host or cells: HEK293T, transient.
5-HT2B, sequence (P41595 whole entry): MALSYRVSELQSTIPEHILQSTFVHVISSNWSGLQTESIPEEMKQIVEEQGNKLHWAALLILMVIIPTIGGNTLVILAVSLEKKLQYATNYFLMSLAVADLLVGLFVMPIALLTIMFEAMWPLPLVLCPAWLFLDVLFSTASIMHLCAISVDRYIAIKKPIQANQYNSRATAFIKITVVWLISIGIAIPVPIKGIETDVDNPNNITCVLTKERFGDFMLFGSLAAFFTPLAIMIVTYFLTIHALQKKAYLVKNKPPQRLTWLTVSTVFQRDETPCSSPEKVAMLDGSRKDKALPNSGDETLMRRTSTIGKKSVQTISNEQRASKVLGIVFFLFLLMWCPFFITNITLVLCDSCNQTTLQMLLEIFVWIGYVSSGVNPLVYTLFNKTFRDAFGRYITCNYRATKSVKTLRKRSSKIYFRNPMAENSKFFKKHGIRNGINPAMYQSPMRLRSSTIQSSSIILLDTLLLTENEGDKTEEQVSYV
Settings: not given
As to the method:
After at least 18-24 hours, transfected cells were plated in poly-lysine coated 96-well white clear bottom cell culture plates in DMEM containing 1% dialyzed FBS at a density of 25-40,000 cells in 200 μL per well and incubated overnight. After approximately 20-24 hours, media was decanted and cells were washed with 60 μL of drug buffer (1×HBSS, 20 mM HEPES, pH 7.4), followed by 60 μL of drug buffer and pre-incubated in a humidified atmosphere at 37° C. before receiving drug stimulation. Drug stimulation was induced by adding 30 μL of a solution of drug (3X) diluted in McCorvy buffer (1×HBSS, 20 mM HEPES, pH 7.4, supplemented with 0.3% BSA fatty acid free, 0.03% ascorbic acid) and plates were incubated at the indicated time and temperature. Fifteen minutes before reading, 10 μL of the RLuc substrate, either coelenterazine h for β-Arrestin recruitment BRET^1 or coelenterazine 400a for Gq dissociation BRET^2 (Prolume/Nanolight, 5 μM final concentration) was addedper well. Plates were read for luminescence at 485 nm and fluorescent eYFP emission at 530 nm for BRET^1 and at 400 nm and fluorescent GFP2 emission at 510 nm for BRET2 at 1 second per well using a Mithras LB940 (Berthold). The BRET ratios of fluorescence/luminescence were calculated per well and were plotted as a function of drug concentration using Graphpad Prism 8 (Graphpad Software Inc., San Diego, CA).
As to `COc1cc(Cl)ccc1CCNCc1cccc2ccccc12` [(34)], the “5-HT2B Gq Dissociation (BRET) EMAX ± SEM (%5-HT)” value is “No activity” and the “5-HT2B Gq Dissociation (BRET) pEC50 ± SEM” value is “No activity”.

As for `COc1cc(Br)ccc1CCNCc1cccc2ccccc12` [(36)], the “5-HT2B Gq Dissociation (BRET) EMAX ± SEM (%5-HT)” value is “No activity” and the “5-HT2B Gq Dissociation (BRET) pEC50 ± SEM” value is “No activity”.

For `CCOc1ccc(CCNCc2cccc3ccccc23)cc1OC` [(37)], the “5-HT2B Gq Dissociation (BRET) EMAX ± SEM (%5-HT)” value is reported as “No activity” and the “5-HT2B Gq Dissociation (BRET) pEC50 ± SEM” value is listed as “No activity”.

As for `COc1cc(CCNCc2cccc3ccccc23)ccc1Cl` [(40)], the “5-HT2B Gq Dissociation (BRET) EMAX ± SEM (%5-HT)” value is listed as “No activity” and the “5-HT2B Gq Dissociation (BRET) pEC50 ± SEM” value was “No activity”.

For the molecule `COc1cc(Br)cc(OC)c1CCNCc1cccc(C)c1O` [(42)], the “5-HT2B Gq Dissociation (BRET) EMAX ± SEM (%5-HT)” value is “No activity” and the “5-HT2B Gq Dissociation (BRET) pEC50 ± SEM” value was “No activity”.

The target in another assay is T2, 5-HT2C (Homo sapiens, UniProt P28335).
T2 sequence (P28335 33-458): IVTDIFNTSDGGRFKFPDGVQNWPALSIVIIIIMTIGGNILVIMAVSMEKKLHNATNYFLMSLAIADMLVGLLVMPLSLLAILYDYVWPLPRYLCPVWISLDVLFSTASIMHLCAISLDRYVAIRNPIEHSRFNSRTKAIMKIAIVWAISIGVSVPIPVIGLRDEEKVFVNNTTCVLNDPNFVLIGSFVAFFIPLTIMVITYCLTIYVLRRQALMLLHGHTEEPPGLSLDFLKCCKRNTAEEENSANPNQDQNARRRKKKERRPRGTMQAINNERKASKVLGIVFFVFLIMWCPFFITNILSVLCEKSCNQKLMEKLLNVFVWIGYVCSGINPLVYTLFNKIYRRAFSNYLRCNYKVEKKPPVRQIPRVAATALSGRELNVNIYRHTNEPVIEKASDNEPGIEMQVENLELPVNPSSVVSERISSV
Kind of assay: BRET Gq dissociation, 5-HT2C. Format: cell-based. Further details: expressed in transfected cells; host or cells: HEK293T, transient. To be noted: read-out: 5-HT2C Gq Dissociation (BRET) EMAX ± SEM (%5-HT). As to the method: as §1
For `COc1cc(Cl)ccc1CCNCc1cccc2ccccc12` [(34)], the Emax was found to be 75.9 ± 1.7%.

For the molecule `COc1cc(Br)ccc1CCNCc1cccc2ccccc12` [(36)], the Emax was 76 ± 1.8%.

For `CCOc1ccc(CCNCc2cccc3ccccc23)cc1OC` [(37)], the Emax came to 84.5 ± 2.8%.

On to `COc1cc(CCNCc2cccc3ccccc23)ccc1Cl` [(40)], for which the Emax was determined as 87.8 ± 2%.

Take `COc1cc(Br)cc(OC)c1CCNCc1cccc(C)c1O` [(42)]: the Emax was 78.1 ± 1.6%.

Staying with this assay, now noted: read-out: 5-HT2C Gq Dissociation (BRET) pEC50 ± SEM (converted).
Consider `COc1cc(Cl)ccc1CCNCc1cccc2ccccc12` [(34)], for which the EC50 is 38 nM.

Take `COc1cc(Br)ccc1CCNCc1cccc2ccccc12` [(36)]: the EC50 was 24.5 nM.

As to `CCOc1ccc(CCNCc2cccc3ccccc23)cc1OC` [(37)], the EC50 was 263 nM.

As for `COc1cc(CCNCc2cccc3ccccc23)ccc1Cl` [(40)], the EC50 was 97.7 nM.

In the case of `COc1cc(Br)cc(OC)c1CCNCc1cccc(C)c1O` [(42)], the EC50 is 1.51 nM.

For the next assay, the target named is T1, 5-HT2A. The experiment in a line: cell-based. As to conditions: BRET, mean ± SEM; read-out: 5-HT2A β-arrestin recruitment pEC50 (converted). Also on record: expressed in transfected cells; host or cells: HEK293T, transient. How it is done:
as §1
Regarding `COc1cc(Br)cc(OC)c1CCNCc1cccc(C)c1O` [(42)], the EC50 was 0.513 nM.

For `COc1cc(CCNC2CCc3ccccc32)c(OC)cc1C` (stereo not drawn) [(83)], the EC50 is 8.13 nM.

With `COc1cc(CCNC2CCc3cccc(O)c32)c(OC)cc1C` (stereo not drawn) [(84)], the EC50 was 3.47 nM.

Consider `COc1cc(CCNC2Cc3ccccc3C2)c(OC)cc1C` [(85)], for which the EC50 was 5.13 nM.

The assay is the same for the next values; noted with them: read-out: 5-HT2A β-arrestin Emax (% 5-HT), BRET, mean ± SEM.
As to `COc1cc(CCNCc2cccc3ccccc23)c(OC)cc1C` [25D-N1-Nap (27)], the Emax stood at 75.5 ± 2.4%.

`COc1cc(CCNCc2ccccc2-c2ccccc2)c(OC)cc1C` [25D-NBPh (28)]: the Emax is 107 ± 4.7%.

For `COc1cc(Cl)ccc1CCNCc1cccc2ccccc12` [(34)], the Emax came out at 83.6 ± 3.6%.

On to `COc1cc(Br)ccc1CCNCc1cccc2ccccc12` [(36)], for which the Emax was 80.2 ± 3.1%.

As for `CCOc1ccc(CCNCc2cccc3ccccc23)cc1OC` [(37)], the Emax was 75.4 ± 2.4%.

As for `COc1cc(CCNCc2cccc3ccccc23)ccc1Cl` [(40)], the Emax turned out to be 80.8 ± 3.8%.

Take `COc1cc(Br)cc(OC)c1CCNCc1cccc(C)c1O` [(42)]: the maximal effect (Emax) turned out to be 78.9 ± 3.7%.

With `COc1cc(CCNC2CCc3ccccc32)c(OC)cc1C` (stereo not drawn) [(83)], the Emax was 112 ± 11.5%.

Take `COc1cc(CCNC2CCc3cccc(O)c32)c(OC)cc1C` (stereo not drawn) [(84)]: the Emax came out at 113 ± 4.3%.

On to `COc1cc(CCNC2Cc3ccccc3C2)c(OC)cc1C` [(85)], for which the Emax turned out to be 70.9 ± 5.1%.
